# Columns and labels:
# LATS2 = target: T1, LATS2 (Homo sapiens, UniProt Q9NRM7); assay: RBC HotSpot kinase assay (33P-ATP, P81 filter-binding), LATS2; type: biochemical; conditions: Table 28, biochemical kinase assay; read-out: LATS2 IC50
# T1 sequence (Q9NRM7 1-1088): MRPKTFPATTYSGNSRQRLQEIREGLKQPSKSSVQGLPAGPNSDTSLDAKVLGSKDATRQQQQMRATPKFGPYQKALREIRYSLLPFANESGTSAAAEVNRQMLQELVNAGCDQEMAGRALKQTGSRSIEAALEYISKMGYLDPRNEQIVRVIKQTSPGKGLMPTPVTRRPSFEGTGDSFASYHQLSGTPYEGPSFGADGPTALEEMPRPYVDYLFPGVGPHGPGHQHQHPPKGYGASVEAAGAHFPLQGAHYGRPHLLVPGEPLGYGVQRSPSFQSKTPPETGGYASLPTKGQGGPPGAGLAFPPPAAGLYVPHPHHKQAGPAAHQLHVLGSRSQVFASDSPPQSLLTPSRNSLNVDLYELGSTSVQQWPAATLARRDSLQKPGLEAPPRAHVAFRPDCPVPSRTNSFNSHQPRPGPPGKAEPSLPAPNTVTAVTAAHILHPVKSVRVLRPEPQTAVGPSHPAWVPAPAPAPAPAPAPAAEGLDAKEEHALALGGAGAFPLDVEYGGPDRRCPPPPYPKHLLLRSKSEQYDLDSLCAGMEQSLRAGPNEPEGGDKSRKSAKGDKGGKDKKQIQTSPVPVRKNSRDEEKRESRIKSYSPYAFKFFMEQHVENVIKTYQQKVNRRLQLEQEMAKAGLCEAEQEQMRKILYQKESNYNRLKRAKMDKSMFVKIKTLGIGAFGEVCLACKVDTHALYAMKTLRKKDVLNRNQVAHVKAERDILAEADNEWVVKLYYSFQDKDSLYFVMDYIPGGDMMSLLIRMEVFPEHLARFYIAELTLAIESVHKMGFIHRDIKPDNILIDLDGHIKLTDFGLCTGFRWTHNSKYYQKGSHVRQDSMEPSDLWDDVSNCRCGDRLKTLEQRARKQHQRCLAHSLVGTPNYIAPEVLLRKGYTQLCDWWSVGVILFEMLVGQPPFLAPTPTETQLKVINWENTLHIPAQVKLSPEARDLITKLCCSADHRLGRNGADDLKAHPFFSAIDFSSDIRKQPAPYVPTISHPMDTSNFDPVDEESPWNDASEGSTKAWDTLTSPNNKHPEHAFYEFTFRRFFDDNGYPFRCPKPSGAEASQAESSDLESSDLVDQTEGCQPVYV
# In short: (§1)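 Kinase in Hepes pH 7.5 buffer with Mg2+, EGTA, Brij35, BSA, vanadate, DTT and 1% DMSO, plus required cofactors and substrate, was preincubated 20 min at room temperature with compound. Reaction was started with 33P-ATP and run 2 h, then detected by P81 filter binding. IC50 (nM) came from 10-point singlet curves.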
# AKT = AKT (Homo sapiens, UniProt P31749); assay: RBC HotSpot kinase assay (33P-ATP, P81 filter-binding), AKT; type: biochemical; conditions: Table 28, biochemical kinase assay; read-out: AKT IC50
# AKT, sequence (P31749 whole entry): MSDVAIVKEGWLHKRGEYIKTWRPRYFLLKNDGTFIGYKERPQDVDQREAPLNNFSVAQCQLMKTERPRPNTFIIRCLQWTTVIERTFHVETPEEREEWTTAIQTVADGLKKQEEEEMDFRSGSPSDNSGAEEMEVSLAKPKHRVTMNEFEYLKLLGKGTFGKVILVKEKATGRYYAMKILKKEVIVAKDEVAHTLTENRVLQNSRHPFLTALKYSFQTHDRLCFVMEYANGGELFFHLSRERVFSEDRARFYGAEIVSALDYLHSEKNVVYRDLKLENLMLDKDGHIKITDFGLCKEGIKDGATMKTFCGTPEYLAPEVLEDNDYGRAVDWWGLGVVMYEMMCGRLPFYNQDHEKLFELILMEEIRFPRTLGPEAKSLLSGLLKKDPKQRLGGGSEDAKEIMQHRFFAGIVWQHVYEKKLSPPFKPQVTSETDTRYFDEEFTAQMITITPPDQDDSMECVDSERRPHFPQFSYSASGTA
# In short: as §1
IC50 (LATS2),IC50 (AKT),SMILES
2.9 nM,323 nM,"C[C@@H]1CN(CC(N)=O)C[C@H](C)[C@@]1(O)c1c(F)cc(-c2ccnc3[nH]cc(F)c23)cc1F [Compound 88, 2-((3R,4s,5S)-4-(2,6-difluoro-4-(3-fluoro-1H-pyrrolo[2,3-b]pyridin-4-yl)phenyl)-4-hydroxy-3,5-dimethylpiperidin-1-yl)acetamide]"
4.6 nM,100 nM,"C[C@@H]1CN(C2CCNCC2)C[C@H](C)[C@@]1(O)c1c(F)cc(-c2ccnc3[nH]cc(F)c23)cc1F [Compound 90, (3R,4s,5S)-4-(2,6-difluoro-4-(3-fluoro-1H-pyrrolo[2,3-b]pyridin-4-yl)phenyl)-3,5-dimethyl-[1,4′-bipiperidin]-4-ol]"
22 nM,1100 nM,"OC1(c2ccc(-c3ccnc4[nH]ccc34)cc2)CCNCC1 [Compound 111, 4-(4-(1H-pyrrolo[2,3-b]pyridin-4-yl)phenyl)piperidin-4-ol]"
9 nM,698 nM,"Cc1cc(-c2ccnc3[nH]cc(F)c23)cc(F)c1C1(O)CC2(CN(C3COC3)C2)C1 [Compound 139, 6-(2-fluoro-4-(3-fluoro-1H-pyrrolo[2,3-b]pyridin-4-yl)-6-methylphenyl)-2-(oxetan-3-yl)-2-azaspiro[3.3]heptan-6-ol]"
4.4 nM,1350 nM,O=C([C@H]1CCCN1)N1CCC(O)(c2ccc(-c3ccnc4[nH]cc(F)c34)cc2)CC1 [Compound 142]
19 nM,715 nM,"Fc1c[nH]c2nccc(-c3ccc(C4CCNCC4)c(Cl)c3)c12 [Compound 172, 4-(3-chloro-4-(piperidin-4-yl)phenyl)-3-fluoro-1H-pyrrolo[2,3-b]pyridine]"
8 nM,330 nM,"Clc1c[nH]c2nccc(-c3ccc(C4CCNCC4)cc3)c12 [Compound 173, 3-chloro-4-(4-(piperidin-4-yl)phenyl)-1H-pyrrolo[2,3-b]pyridine]"
14 nM,684 nM,"Cc1cc(-c2ccnc3[nH]ccc23)ccc1C1CCNCC1 [Compound 177, 4-(3-methyl-4-(piperidin-4-yl)phenyl)-1H-pyrrolo[2,3-b]pyridine]"
50 nM,940 nM,"c1cc(-c2ccc(C3CC4CCC(C3)N4)cc2)c2cc[nH]c2n1 (stereo not shown) [Compound 184, 4-(4-(8-azabicyclo[3.2.1]octan-3-yl)phenyl)-1H-pyrrolo[2,3-b]pyridine]"
62.6 nM,1440 nM,"CC1CC(c2ccc(-c3ccnc4[nH]ccc34)cc2)CC(C)N1 (stereo not shown) [Compound 187, 4-(4-(2,6-dimethylpiperidin-4-yl)phenyl)-1H-pyrrolo[2,3-b]pyridine]"
43 nM,200 nM,"CC1(c2ccc(-c3ccnc4[nH]ccc34)cc2)CCNCC1 [Compound 201, 4-(4-(4-methylpiperidin-4-yl)phenyl)-1H-pyrrolo[2,3-b]pyridine]"
5.5 nM,312 nM,"Cc1cc(-c2ccnc3[nH]cc(F)c23)ccc1CN [Compound 211, (4-(3-fluoro-1H-pyrrolo[2,3-b]pyridin-4-yl)-2-methylphenyl) methanamine]"
128 nM,394 nM,"NCc1ccc(-c2ccnc3[nH]cc(-c4ccccc4)c23)cc1-c1ccccc1 [Compound 219, (5-(3-phenyl-1H-pyrrolo[2,3-b]pyridin-4-yl)-[1,1′-biphenyl]-2-yl)methanamine]"
1420 nM,13 nM,"COC(=O)c1c[nH]c2nccc(-c3ccc(CN)cc3)c12 [Compound 223, methyl 4-(4-(aminomethyl)phenyl)-1H-pyrrolo[2,3-b]pyridine-3-carboxylate]"
16 nM,1200 nM,"Cc1cccc(-c2c[nH]c3nccc(-c4ccc(CN)cc4)c23)c1 [Compound 230, (4-(3-(m-tolyl)-1H-pyrrolo[2,3-b]pyridin-4-yl)phenyl) methanamine]"
1.2 nM,229 nM,"CC(C)(N)c1ccc(-c2ccnc3[nH]cc(F)c23)cc1 [Compound 238, 2-(4-(3-fluoro-1H-pyrrolo[2,3-b]pyridin-4-yl)phenyl)propan-2-amine]"
24 nM,751 nM,"NCc1ccc(-c2ccnc3[nH]cc(-c4cccnc4)c23)cc1 [Compound 245, (4-(3-(pyridin-3-yl)-1H-pyrrolo[2,3-b]pyridin-4-yl)phenyl) methanamine]"
5 nM,983 nM,"NCc1ccc(-c2ccnc3[nH]cc(-c4ccccc4)c23)cc1 [Compound 253, (4-(3-phenyl-1H-pyrrolo[2,3-b]pyridin-4-yl)phenyl) methanamine]"
5.2 nM,116 nM,"Cc1cc(-c2ccnc3[nH]cc(Cl)c23)ccc1CN [Compound 254, (4-(3-chloro-1H-pyrrolo[2,3-b]pyridin-4-yl)-2-methylphenyl) methanamine]"
5 nM,249 nM,"Cc1cc(-c2ccnc3[nH]ccc23)ccc1CN [Compound 266, (2-methyl-4-(1H-pyrrolo[2,3-b]pyridin-4-yl)phenyl) methanamine]"
10 nM,308 nM,"c1cc(-c2ccc3c(c2)CCNC3)c2cc[nH]c2n1 [Compound 267, 6-(1H-pyrrolo[2,3-b]pyridin-4-yl)-1,2,3,4-tetrahydroiso-quinoline]"
25 nM,428 nM,"c1cc(-c2ccc(C3CCCCN3)cc2)c2cc[nH]c2n1 (stereo not shown) [Compound 271, 4-(4-(piperidin-2-yl)phenyl)-1H-pyrrolo[2,3-b]pyridine]"
8.4 nM,266 nM,"NCc1ccc(-c2ccnc3[nH]cc(F)c23)cc1 [Compound 275, (4-(3-fluoro-1H-pyrrolo[2,3-b]pyridin-4-yl)phenyl) methanamine]"
5.8 nM,167 nM,"NCc1ccc(-c2ccnc3[nH]cc(Cl)c23)cc1 [Compound 276, (4-(3-chloro-1H-pyrrolo[2,3-b]pyridin-4-yl)phenyl) methanamine]"
45 nM,1150 nM,"NCc1ccc(-c2ccnc3[nH]ccc23)cc1C(F)(F)F [Compound 284, (4-(1H-pyrrolo[2,3-b]pyridin-4-yl)-2-(trifluoromethyl)phenyl) methanamine]"
34 nM,1030 nM,"NCc1ccc(-c2ccnc3[nH]ccc23)cc1 [Compound 287, (4-(1H-pyrrolo[2,3-b]pyridin-4-yl)phenyl) methanamine]"
3 nM,2270 nM,"COC(=O)c1c[nH]c2nccc(-c3cc(C)c([C@@]4(O)[C@H](C)CN(C5CCS(=O)(=O)CC5)C[C@@H]4C)c(F)c3)c12 [Compound 309, methyl 4-(4-((3S,4s,5R)-1-(1,1-dioxidotetrahydro-2H-thiopyran-4-yl)-4-hydroxy-3,5-dimethylpiperidin-4-yl)-3-fluoro-5-methylphenyl)-1H-pyrrolo[2,3-b]pyridine-3-carboxylate]"

SMILES,IC50 (LATS2),IC50 (AKT)
"Cc1cc(-c2ccnc3[nH]cc(F)c23)cc(F)c1[C@@]1(O)[C@H](C)CN(C(=O)CN)C[C@@H]1C [Compound 61, 2-amino-1-((3R,4s,5S)-4-(2-fluoro-4-(3-fluoro-1H-pyrrolo[2,3-b]pyridin-4-yl)-6-methylphenyl)-4-hydroxy-3,5-dimethylpiperidin-1-yl)ethan-1-one]",3.2 nM,197 nM
"OC1(c2ccc(-c3ccnc4[nH]cc(F)c34)cc2)CCNCC1 [Compound 110, 4-(4-(3-fluoro-1H-pyrrolo[2,3-b]pyridin-4-yl)phenyl)piperidin-4-ol]",2.9 nM,490 nM
"Fc1c[nH]c2nccc(-c3ccc(C4CCNCC4)cc3)c12 [Compound 169, 3-fluoro-4-(4-(piperidin-4-yl)phenyl)-1H-pyrrolo[2,3-b]pyridine]",14 nM,1180 nM
"Cc1cc(-c2ccnc3[nH]cc(F)c23)cc(F)c1[C@@]1(O)[C@H](C)CN(C)C[C@@H]1C [Compound 304, (3S,4s,5R)-4-(2-fluoro-4-(3-fluoro-1H-pyrrolo[2,3-b]pyridin-4-yl)-6-methylphenyl)-1,3,5-trimethylpiperidin-4-ol]",4 nM,271 nM
"Cc1cc(-c2ccnc3[nH]cc(F)c23)cc(F)c1[C@@]1(O)[C@H](C)CN(C(C)C)C[C@@H]1C [Compound 305, (3S,4s,5R)-4-(2-fluoro-4-(3-fluoro-1H-pyrrolo[2,3-b]pyridin-4-yl)-6-methylphenyl)-1-isopropyl-3,5-dimethylpiperidin-4-ol]",3.7 nM,758 nM

# Source: patent publication US20250361230A1, “LATS Inhibitors and Uses Thereof” (The USA, as Represented by the Secretary, Dept. of Heath …, priority 2022, published 2025)
